{
  "source": "ChEMBL document CHEMBL5505996",
  "about": "“Discovery of novel osthole derivatives exerting anti-inflammatory effect on DSS-induced ulcerative colitis and LPS-induced acute lung injury in mice” (Eur J Med Chem, 2024)",
  "key": {"THP-1": {"system": "THP-1", "experiment": "Antiinflammatory activity against LPS-induced PMA-differentiated human THP-1 cells assessed as inhibition of IL-6 release pretreated for 30 mins followed by LPS stimulation and measured after 24 hrs by ELISA", "type": "functional, cell-based"}, "Mus musculus [1]": {"system": "Mus musculus", "experiment": "Antiinflammatory activity against C57BL/6 mouse model of DSS induced ulcerative colitis assessed as reversal of weight loss at 20 mg/kg, po administered daily for 10 days", "type": "functional, organism-based", "settings": "time 10.0 day"}, "RAW264.7 [2]": {"system": "RAW264.7", "experiment": "Potency index, ratio of osthole IC50 to test compound IC50 for antiinflammatory activity against LPS-induced mouse RAW264.7 cells assessed as inhibition of TNF-alpha release pretreated for 30 mins followed by LPS stimulation and measured after 24 hrs by ELISA", "type": "functional", "settings": "time 24.5 hrs"}, "J774.A1 [3]": {"system": "J774.A1", "experiment": "Cytotoxicity against mouse J774.A1 cells assessed as reduction in cell proliferation at 10 uM measured after 24 hrs by CCK-8 assay", "type": "toxicity, cell-based", "settings": "j774.a1, 24 h"}, "Mus musculus [4]": {"system": "Mus musculus", "experiment": "Antiinflammatory activity against C57BL/6 mouse model of DSS induced ulcerative colitis assessed as reversal of splenomegaly at 100 mg/kg, po administered daily for 10 days", "type": "functional, organism-based", "settings": "time 10.0 day"}, "J774.A1 [5]": {"system": "J774.A1", "experiment": "Inhibition of MAPK signaling pathway in LPS-stimulated mouse J774.A1 cells assessed as reduction in p38 phosphorylation at 10 uM pretreated for 2 hrs followed by LPS stimulation and measured after 30 mins by Western blot analysis", "type": "cell-based", "settings": "time 2.5 hrs"}, "Mus musculus [6]": {"system": "Mus musculus", "experiment": "Antiinflammatory activity against C57BL/6 mouse model of DSS induced ulcerative colitis assessed as protection against crypt necrosis at 20 mg/kg, po administered daily for 10 days by H and E staining based analysis", "type": "functional, organism-based", "settings": "time 10.0 day"}, "[7]": {"experiment": "Tmax in male Sprague-Dawley rat at 10 mg/kg, po by UPLC-MS/MS analysis", "type": "ADME, organism-based", "settings": "in vivo"}, "[8]": {"experiment": "Half life in male Sprague-Dawley rat at 10 mg/kg, po by UPLC-MS/MS analysis", "type": "ADME, organism-based", "settings": "in vivo"}, "[9]": {"target": "Interleukin-1 receptor-associated kinase 1 (Homo sapiens) (UniProt P51617)", "sequence (P51617 whole entry, looked up)": "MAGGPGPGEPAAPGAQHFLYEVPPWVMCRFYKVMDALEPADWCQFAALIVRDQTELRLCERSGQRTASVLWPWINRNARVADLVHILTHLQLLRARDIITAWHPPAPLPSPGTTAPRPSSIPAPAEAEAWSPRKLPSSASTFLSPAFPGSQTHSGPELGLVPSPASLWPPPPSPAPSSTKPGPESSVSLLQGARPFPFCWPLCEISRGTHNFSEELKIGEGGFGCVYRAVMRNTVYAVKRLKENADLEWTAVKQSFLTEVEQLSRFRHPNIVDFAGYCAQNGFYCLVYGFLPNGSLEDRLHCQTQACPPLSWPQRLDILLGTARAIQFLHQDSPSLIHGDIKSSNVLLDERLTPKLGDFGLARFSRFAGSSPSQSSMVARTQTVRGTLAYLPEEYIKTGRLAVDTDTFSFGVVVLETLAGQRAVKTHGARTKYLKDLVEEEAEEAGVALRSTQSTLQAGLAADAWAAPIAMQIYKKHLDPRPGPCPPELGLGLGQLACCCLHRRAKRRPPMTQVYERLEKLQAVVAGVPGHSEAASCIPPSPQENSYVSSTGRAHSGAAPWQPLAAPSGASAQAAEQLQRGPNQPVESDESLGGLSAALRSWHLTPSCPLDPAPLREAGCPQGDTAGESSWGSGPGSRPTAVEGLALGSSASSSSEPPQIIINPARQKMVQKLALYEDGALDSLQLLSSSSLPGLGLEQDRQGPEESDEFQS", "experiment": "Inhibition of IRAK1 (unknown origin) at 10 uM relative to control"}, "[10]": {"experiment": "AUC (0 to t) in male Sprague-Dawley rat at 10 mg/kg, po by UPLC-MS/MS analysis", "type": "ADME, organism-based", "settings": "in vivo"}, "Mus musculus [11]": {"system": "Mus musculus", "experiment": "Antiinflammatory activity against C57BL/6 mouse model of DSS induced ulcerative colitis assessed as reversal of splenomegaly at 20 mg/kg, po administered daily for 10 days", "type": "functional, organism-based", "settings": "time 10.0 day"}, "Mus musculus [12]": {"system": "Mus musculus", "experiment": "Antiinflammatory activity against C57BL/6 mouse model of DSS induced ulcerative colitis assessed as protection against goblet cell depletion at 20 mg/kg, po administered daily for 10 days by H and E staining based analysis", "type": "functional, organism-based", "settings": "time 10.0 day"}, "Mus musculus [13]": {"system": "Mus musculus", "experiment": "(§1) Antiinflammatory activity against C57BL/6 mouse model of LPS induced acute lung injury assessed as reduction in IL-6 level in BALF at 20 mg/kg, po administered every 12 hrs for 3 times followed by LPS stimulation for 6 hrs starting from 30 mins post last dose by ELISA", "type": "functional, organism-based", "settings": "time 42.5 hrs"}, "Mus musculus [14]": {"system": "Mus musculus", "experiment": "as §1, with “thickening of alveolar septa” for “IL-6 level in BALF”, “H and E staining based analysis” for “ELISA”", "type": "functional, organism-based", "settings": "time 42.5 hrs"}, "Mus musculus [15]": {"system": "Mus musculus", "experiment": "as §1, with “lung” for “BALF”, “immunohistochemical staining based analysis” for “ELISA”", "type": "functional, organism-based", "settings": "time 42.5 hrs"}, "[16]": {"experiment": "Acute toxicity in ICR mouse assessed as pathological changes in kidney at 500 mg/kg, po measured daily for 10 days by H and E staining based analysis", "type": "organism-based", "settings": "in vivo, 240 h, time 10 day"}, "[17]": {"experiment": "Acute toxicity in ICR mouse assessed as pathological changes in spleen at 500 mg/kg, po measured daily for 10 days by H and E staining based analysis", "type": "organism-based", "settings": "in vivo, 240 h, time 10 day"}, "[18]": {"experiment": "Acute toxicity in ICR mouse assessed as effect on physiological status at 500 mg/kg, po measured daily for 10 days", "type": "organism-based", "settings": "in vivo, 240 h, time 10 day"}, "Mus musculus [19]": {"system": "Mus musculus", "experiment": "Antiinflammatory activity against C57BL/6 mouse model of DSS induced ulcerative colitis assessed as protection against mucosal damage at 20 mg/kg, po administered daily for 10 days by H and E staining based analysis", "type": "functional, organism-based", "settings": "time 10.0 day"}, "J774.A1 [20]": {"system": "J774.A1", "experiment": "Inhibition of NFkappaB signaling pathway in LPS-induced mouse J774.A1 cells assessed as reduction in p65 phosphorylation pretreated for 2 hrs followed by LPS stimulation and measured after 30 mins by Western blot analysis", "type": "cell-based", "settings": "time 2.5 hrs"}, "RAW264.7 [21]": {"system": "RAW264.7", "experiment": "Antiinflammatory activity against LPS-induced mouse RAW264.7 cells assessed as inhibition of TNF-alpha release pretreated for 30 mins followed by LPS stimulation and measured after 24 hrs by ELISA", "type": "functional, cell-based"}, "Mus musculus [22]": {"system": "Mus musculus", "experiment": "(§2) Antiinflammatory activity against C57BL/6 mouse model of LPS induced acute lung injury assessed as reduction in IL-6 mRNA expression in lung at 20 mg/kg, po administered every 12 hrs for 3 times followed by LPS stimulation for 6 hrs starting from 30 mins post last dose by RT-qPCR analysis", "type": "functional, organism-based", "settings": "time 42.5 hrs"}, "Mus musculus [23]": {"system": "Mus musculus", "experiment": "Antiinflammatory activity against C57BL/6 mouse model of DSS induced ulcerative colitis assessed as reversal of shortened intestinal length due to fecal obstruction at 20 mg/kg, po administered daily for 10 days", "type": "functional, organism-based", "settings": "time 10.0 day"}, "J774.A1 [24]": {"system": "J774.A1", "experiment": "Inhibition of MAPK signaling pathway in LPS-stimulated mouse J774.A1 cells assessed as reduction in ERK1/2 phosphorylation at 10 uM pretreated for 2 hrs followed by LPS stimulation and measured after 30 mins by Western blot analysis", "type": "cell-based", "settings": "time 2.5 hrs"}, "[25]": {"experiment": "Acute toxicity in ICR mouse assessed as effect on daily activities at 500 mg/kg, po measured daily for 10 days", "type": "organism-based", "settings": "in vivo, 240 h, time 10 day"}, "RAW264.7 [26]": {"system": "RAW264.7", "experiment": "Antiinflammatory activity against LPS-induced mouse RAW264.7 cells assessed as inhibition of IL-6 release pretreated for 30 mins followed by LPS stimulation and measured after 24 hrs by ELISA", "type": "functional, cell-based"}, "Mus musculus [27]": {"system": "Mus musculus", "experiment": "Antiinflammatory activity against C57BL/6 mouse model of LPS induced acute lung injury assessed as reduction in total number of cells in BALF at 20 mg/kg, po administered every 12 hrs for 3 times followed by LPS stimulation for 6 hrs starting from 30 mins post last dose", "type": "functional, organism-based", "settings": "time 42.5 hrs"}, "Mus musculus [28]": {"system": "Mus musculus", "experiment": "as §2, with “inflammatory cell infiltration” for “IL-6 mRNA expression in lung”, “H and E staining based” for “RT-qPCR”", "type": "functional, organism-based", "settings": "time 42.5 hrs"}, "Mus musculus [29]": {"system": "Mus musculus", "experiment": "Antiinflammatory activity against C57BL/6 mouse model of DSS induced ulcerative colitis assessed as reduction in IL-6 level in serum at 20 mg/kg, po administered daily for 10 days", "type": "functional, organism-based", "settings": "time 10.0 day"}, "[30]": {"experiment": "Acute toxicity in ICR mouse assessed as pathological changes in lung at 500 mg/kg, po measured daily for 10 days by H and E staining based analysis", "type": "organism-based", "settings": "in vivo, 240 h, time 10 day"}, "Mus musculus [31]": {"system": "Mus musculus", "experiment": "Antiinflammatory activity against C57BL/6 mouse model of LPS induced acute lung injury assessed as reduction in interstitial edema at 20 mg/kg, po administered every 12 hrs for 3 times followed by LPS stimulation for 6 hrs starting from 30 mins post last dose by H and E staining based analysis", "type": "functional, organism-based", "settings": "time 42.5 hrs"}, "[32]": {"target": "Mitogen-activated protein kinase kinase kinase 7 (Homo sapiens) (UniProt O43318)", "sequence (O43318 whole entry, looked up)": "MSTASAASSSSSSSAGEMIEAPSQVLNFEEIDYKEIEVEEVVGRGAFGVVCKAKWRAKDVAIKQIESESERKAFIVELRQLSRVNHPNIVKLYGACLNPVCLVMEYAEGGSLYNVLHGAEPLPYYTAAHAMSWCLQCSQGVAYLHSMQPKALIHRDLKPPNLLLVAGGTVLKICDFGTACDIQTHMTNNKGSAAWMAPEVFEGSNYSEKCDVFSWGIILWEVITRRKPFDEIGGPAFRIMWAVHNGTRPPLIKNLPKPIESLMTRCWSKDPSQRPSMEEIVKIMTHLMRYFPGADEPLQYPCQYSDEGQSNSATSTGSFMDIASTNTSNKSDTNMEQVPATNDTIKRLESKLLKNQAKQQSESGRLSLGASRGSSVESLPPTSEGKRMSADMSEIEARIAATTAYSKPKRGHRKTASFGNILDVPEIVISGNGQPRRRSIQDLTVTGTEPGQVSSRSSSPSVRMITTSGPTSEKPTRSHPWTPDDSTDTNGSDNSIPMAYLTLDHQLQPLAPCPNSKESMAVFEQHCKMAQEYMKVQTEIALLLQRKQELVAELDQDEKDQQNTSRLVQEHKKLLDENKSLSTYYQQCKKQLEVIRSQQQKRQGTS", "experiment": "Inhibition of TAK1 (unknown origin) at 10 uM relative to control"}},
  "note": "Active and inactive are the calls of the source. No cut-off for these calls is given here.",
  "data": [
    {"smiles": "CC(C)=CCc1c(OCCCCNCCN2CCOCC2)ccc2ccc(=O)oc12", "values": [
      {"measurement": "IC50", "setting": "THP-1", "result": 10.6, "unit": "µM"},
      {"measurement": "Activity", "setting": "Mus musculus [1]", "result": "Active"},
      {"measurement": "Ratio IC50", "setting": "RAW264.7 [2]", "result": 3.8},
      {"measurement": "Activity", "setting": "J774.A1 [3]", "result": "Non-Toxic"},
      {"measurement": "Activity", "setting": "Mus musculus [4]", "result": "Active"},
      {"measurement": "inhibition", "setting": "J774.A1 [5]", "result": "Active"},
      {"measurement": "Activity", "setting": "Mus musculus [6]", "result": "Active"},
      {"measurement": "Tmax", "setting": "[7]", "result": 3.33, "unit": "h"},
      {"measurement": "half-life", "setting": "[8]", "result": 10.7, "unit": "h"},
      {"measurement": "inhibition", "setting": "[9]", "result": 10.3, "unit": "%"},
      {"measurement": "AUC(0-t)", "setting": "[10]", "result": 1120, "unit": "ng·h/mL"},
      {"measurement": "Activity", "setting": "Mus musculus [11]", "result": "Active"},
      {"measurement": "Activity", "setting": "Mus musculus [12]", "result": "Active"},
      {"measurement": "Activity", "setting": "Mus musculus [13]", "result": "Active"},
      {"measurement": "Activity", "setting": "Mus musculus [14]", "result": "Active"},
      {"measurement": "Activity", "setting": "Mus musculus [15]", "result": "Active"},
      {"measurement": "Activity", "setting": "[16]", "result": "Non-Toxic"},
      {"measurement": "Activity", "setting": "[17]", "result": "Non-Toxic"},
      {"measurement": "Activity", "setting": "[18]", "result": "Non-Toxic"},
      {"measurement": "Activity", "setting": "Mus musculus [19]", "result": "Active"},
      {"measurement": "inhibition", "setting": "J774.A1 [20]", "result": "inactive"},
      {"measurement": "IC50", "setting": "RAW264.7 [21]", "result": 29.7, "unit": "µM"},
      {"measurement": "Activity", "setting": "Mus musculus [22]", "result": "Active"},
      {"measurement": "Activity", "setting": "Mus musculus [23]", "result": "Active"},
      {"measurement": "inhibition", "setting": "J774.A1 [24]", "result": "inactive"},
      {"measurement": "Activity", "setting": "[25]", "result": "Non-Toxic"},
      {"measurement": "IC50", "setting": "RAW264.7 [26]", "result": 4.57, "unit": "µM"},
      {"measurement": "Activity", "setting": "Mus musculus [27]", "result": "Active"},
      {"measurement": "Activity", "setting": "Mus musculus [28]", "result": "Active"},
      {"measurement": "Activity", "setting": "Mus musculus [29]", "result": "Active"},
      {"measurement": "Activity", "setting": "[30]", "result": "Non-Toxic"},
      {"measurement": "Activity", "setting": "Mus musculus [31]", "result": "Active"},
      {"measurement": "inhibition", "setting": "[32]", "result": 5.23, "unit": "%"}
    ]}
  ]
}
